The subject of series [1] is RNA complementary strand (sense strand 3′-CGC AAA AAA CGA-5′). The series can be described thus: Melting temperature (Tm) of oligonucleotide hybridized to the RNA complementary strand. The series is classed as binding. How it is done:
(§1) Nitrogen stream was passed through the cell chamber of the spectrophotometer (SHIMADZU UV-1800) to prevent dew condensation, and the sample solution was gradually cooled to 5° C. and kept at 5° C. for 15 minutes before starting the measurements. The temperature was raised to 90° C. at the rate of 0.5° C./min while ultraviolet absorption spectra were measured at 260 nm at intervals of 0.5° C. Lidded cells were used to prevent concentration change due to rising temperature.
(§2) The method for determining the Tm values was a method similar to (1).
as §2

Series [2] deals with DNA complementary strand (sense strand 3′-CGC AAA AAA CGA-5′). The series can be described thus: Melting temperature (Tm) of oligonucleotide hybridized to the DNA complementary strand. It is filed as binding. How it is done: as §1, §2, §2
The mark [3] stands for this setting: Table 10, X = II-1 (compound I-1), 100 mM NaCl, 10 mM sodium phosphate buffer (pH 7.2), 4.0 μM each strand.
[4] abbreviates: Table 11, Xp = II-2 (compound IV-1), method similar to (1).
Setting [5] is: Table 12, nucleoside structure of compound VII-1 (II-3), method similar to (1).

Turning to “5′-d(GCG TTT TTT GCT)-3′ (DNA GCGTTTTTTGCT; DNA, backbone not given here) [oligonucleotide (0), nucleoside moieties of the oligonucleotide are unmodified, used as a control, reference compound]”, the “Tm, RNA complementary strand” value in series [1] (setting [3]) came to 49.3 °C; in series [1] (setting [4]), 49.3 °C; in series [1] (setting [5]) it was 49.7 °C. For the same substance, the “Tm, DNA complementary strand” value in series [2] (setting [3]) came out at 53.1 °C; in series [2] (setting [4]), 53.1 °C; in series [2] (setting [5]), 54.0 °C.
